Assay results as given in patent US9567339B2, “Primary carboxamides as BTK inhibitors” (AbbVie Inc., priority 2013, dated 2017).
pIC50: −log10 of the molar value.

Molecular target: BTK, recombinant human catalytic domain (aa 393-659) (Homo sapiens (Human), UniProt Q06187)
Test: In vitro BTK kinase activity measured by time-resolved fluorescence resonance energy transfer (trFRET)
Assay type: biochemical
Conditions: trFRET, 0.001 mM ATP, biotin-TYR1 peptide substrate; read-out: Btk IC50

Sequence of BTK, recombinant human catalytic domain (aa 393-659) (Q06187 393-659): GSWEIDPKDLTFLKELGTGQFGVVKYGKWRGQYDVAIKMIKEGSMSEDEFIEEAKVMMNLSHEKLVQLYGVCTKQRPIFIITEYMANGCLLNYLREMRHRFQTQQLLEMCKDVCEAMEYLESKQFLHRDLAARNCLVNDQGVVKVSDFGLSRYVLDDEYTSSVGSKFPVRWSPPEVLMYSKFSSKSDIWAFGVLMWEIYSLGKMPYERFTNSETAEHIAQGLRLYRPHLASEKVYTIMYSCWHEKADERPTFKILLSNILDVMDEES

C=CC(=O)Nc1cccc(-c2ccc(C(N)=O)c3[nH]c(-c4ccc(CN5CCOCC5)cc4)cc23)c1C [A.1.44]
pIC50: > 7.00

C=CC(=O)Nc1cccc(-c2ccc(C(N)=O)c3[nH]c(-c4ccc(C(N)=O)cc4)cc23)c1C [A.1.45]
pIC50: > 7.00

Cc1c(NC(=O)c2nccs2)cccc1-c1ccc(C(N)=O)c2[nH]c(-c3ccc(=O)n(C)c3)cc12 [A.2.1]
pIC50: > 7.00

Cc1c(NC(=O)c2nccs2)cccc1-c1ccc(C(N)=O)c2[nH]c(-c3cnn(C)c3)cc12 [A.2.2]
pIC50: > 7.00

CC(=O)N1CC=C(c2cc3c(-c4cccc(-n5cnc6ccccc6c5=O)c4C)ccc(C(N)=O)c3[nH]2)CC1 [A.3.1]
pIC50: > 7.00

CC(=O)N1CC=C(c2cc3c(-c4cccc(-n5cnc6ccc(F)cc6c5=O)c4C)ccc(C(N)=O)c3[nH]2)CC1 [A.3.2]
pIC50: > 7.00

CC(=O)N1CC=C(c2cc3c(-c4cccc(NC(=O)c5ccc(C(C)(C)C)cc5)c4C)ccc(C(N)=O)c3[nH]2)CC1 [A.3.3]
pIC50: > 7.00

CC(=O)N1CC=C(c2cc3c(-c4cccc(NC(=O)c5nccs5)c4C)ccc(C(N)=O)c3[nH]2)CC1 [A.3.4]
pIC50: > 7.00

CC(=O)N1CC=C(c2cc3c(-c4cccc(NC(=O)c5cc6c(s5)CCCC6)c4C)ccc(C(N)=O)c3[nH]2)CC1 [A.3.5]
pIC50: > 7.00

CC(=O)N1CC=C(c2cc3c(-c4cccc(NC(=O)c5ccc(C6CC6)cc5)c4C)ccc(C(N)=O)c3[nH]2)CC1 [A.3.6]
pIC50: > 7.00

CC(=O)N1CC=C(c2cc3c(-c4cccc(NC(=O)c5ccc(C(F)F)cc5)c4C)ccc(C(N)=O)c3[nH]2)CC1 [A.3.7, 2-(1-acetyl-1,2,3,6-tetrahydropyridin-4-yl)-4-(3-(4-(difluoromethyl)benzamido)-2-methylphenyl)-1H-indole-7-carboxamide]
pIC50: > 7.00

CC(=O)N1CC=C(c2cc3c(-c4cccc(NC(=O)c5ccc(C(C)(C)C#N)cc5)c4C)ccc(C(N)=O)c3[nH]2)CC1 [A.3.8]
pIC50: > 7.00

C=CC(=O)NCc1cccc(-c2ccc(C(N)=O)c3[nH]c(C4=CCN(S(C)(=O)=O)CC4)cc23)c1 [A.4.1]
pIC50: > 7.00

CS(=O)(=O)N1CC=C(c2cc3c(-c4ccccc4N)ccc(C(N)=O)c3[nH]2)CC1 [A.4.2, 4-(2-aminophenyl)-2-(1-(methylsulfonyl)-1,2,3,6-tetrahydropyridin-4-yl)-1H-indole-7-carboxamide]
pIC50: > 7.00

C=CC(=O)Nc1ccccc1-c1ccc(C(N)=O)c2[nH]c(C3=CCN(S(C)(=O)=O)CC3)cc12 [A.4.3]
pIC50: > 7.00

CS(=O)(=O)N1CC=C(c2cc3c(-c4cccc(OCc5nccs5)c4)ccc(C(N)=O)c3[nH]2)CC1 [A.4.4]
pIC50: > 7.00

Cc1c(N)cccc1-c1ccc(C(N)=O)c2[nH]c(C3=CCN(S(C)(=O)=O)CC3)cc12 [A.4.5, 4-(3-amino-2-methylphenyl)-2-(1-(methylsulfonyl)-1,2,3,6-tetrahydropyridin-4-yl)-1H-indole-7-carboxamide]
pIC50: > 7.00

Cc1c(-c2ccc(C(N)=O)c3[nH]c(C4=CCN(S(C)(=O)=O)CC4)cc23)cccc1N1CCc2ccccc2C1=O [A.4.6]
pIC50: > 7.00

CS(=O)(=O)N1CC=C(c2cc3c(-c4ccccc4)ccc(C(N)=O)c3[nH]2)CC1 [A.4.7]
pIC50: > 7.00

CS(=O)(=O)N1CC=C(c2cc3c(-c4cccc(Nc5ccnc(C#N)n5)c4)ccc(C(N)=O)c3[nH]2)CC1 [A.4.8]
pIC50: > 7.00

Cc1c(NC(=O)c2ccc(C(F)F)cc2)cccc1-c1ccc(C(N)=O)c2[nH]c(C3=CCN(S(C)(=O)=O)CC3)cc12 [A.4.10]
pIC50: > 7.00

Cc1c(NC2COC2)cccc1-c1ccc(C(N)=O)c2[nH]c(C3=CCN(S(C)(=O)=O)CC3)cc12 [A.4.11]
pIC50: > 7.00

Cc1c(-c2ccc(C(N)=O)c3[nH]c(C4=CCN(S(C)(=O)=O)CC4)cc23)cccc1N(C(=O)c1ccc(C(F)F)cc1)C1COC1 [A.4.12]
pIC50: > 7.00

Cc1c(NCCO)cccc1-c1ccc(C(N)=O)c2[nH]c(C3=CCN(S(C)(=O)=O)CC3)cc12 [A.4.13]
pIC50: > 7.00

Cc1c(-c2ccc(C(N)=O)c3[nH]c(C4=CCN(S(C)(=O)=O)CC4)cc23)cccc1N(CCO)C(=O)c1ccc(C(F)F)cc1 [A.4.14]
pIC50: > 7.00
